Results on 9 molecules are retold here after US6512000B1, “Aminocarbonyl-substituted benzimidazoles having tryptase-inhibitory activity” (Boehringer Ingelheim Pharma KG, priority 1999, dated 2003).

SMILES strings stand for the structures. Where a name gives a salt, the structure may show the parent alone.

For orientation: melting point means the temperature, or range, at which the solid turns liquid. The IC50 is the concentration that gives 50% inhibition. The low end stands for inhibition by little substance, the high end for a need for much substance.

System in one data set: not given
Experiment: not given
Conditions: not given
As to `Cl.Cl.Cn1c(CCc2ccc(C(=N)N)cc2)nc2cc(C(=O)N(CCN(Cc3ccccc3)Cc3ccccc3)C3CCCCC3)ccc21` [Example 2, 2-[2-(4-Amidinophenyl)ethyl]-1-methyl-benzimidazol-5-yl-carboxylic Acid-N-[2-(N,N-dibenzylamino)ethyl]-N-cyclohexyl-amide-dihydrochloride], the melting point was 140 to 148 °C.
`Cn1c(CCc2ccc(CN)cc2)nc2cc(C(=O)N(CCC(c3ccccc3)c3ccccc3)Cc3ccc(CN)cc3)ccc21` (as salt: hydrochloride) [Example 43, 2-[2-(4-Aminomethyl-phenyl)-ethyl]-1-methyl-benzimidazol-5-yl-carboxylic Acid-N-(4-aminomethylbenzyl)-N-(3,3-diphenylpropyl)-amide-dihydrochloride] yielded a melting point of 140 °C.
In the case of `Cn1c(CCc2ccc(C(=N)N)cc2)nc2cc(C(=O)N(CCC(=N)N)Cc3ccccc3)ccc21` (as salt: hydrochloride) [Example 9, 2-[2-(4-Amidinophenyl)-ethyl]-1-methyl-benzimidazol-5-yl-carboxylic Acid-N-(2-amidinoethyl)-N-benzyl-amide-dihydrochloride], the melting point is > 220 °C.
Turning to `Cc1ccc(N(CCC(=N)N)C(=O)c2ccc3c(c2)nc(CCc2ccc(C(=N)N)cc2)n3C)cc1` (as salt: hydrochloride) [Example 26, 2-[2-(4-Amidinophenyl)-ethyl]-1-methyl-benzimidazol-5-yl-carboxylic Acid-N-(2-amidinoethyl)-N-(4-methyl-phenyl)-amide-dihydrochloride], the melting point was 222 to 225 °C.
Still for that read-out and setting: next, `CC(=O)NCCCCC(NC(=O)c1ccc2c(c1)nc(CCc1ccc(C(=N)N)cc1)n2C)C(=O)O` (stereo not shown) (as salt: formate) [Example 34]: 158 °C.
Turning to `CN(Cc1cccnc1)C(=O)c1ccc2c(c1)nc(CCc1ccc(C(=N)N)cc1)n2C` (as salt: hydrochloride) [Example 1, 2-[2-(4-Amidinophenyl)ethyl]-1-methyl-benzimidazol-5-yl-carboxylic Acid-N-(pyridin-3-yl-methyl)-N-methyl-amide-hydrochloride], the melting point was > 220 °C.
As to `CC(C)N(CCC(=N)N)C(=O)c1ccc2c(c1)nc(CCc1ccc(C(=N)N)cc1)n2C` (as salt: hydrochloride) [Example 27, 2-[2-(4-Amidinophenyl)-ethyl]-1-methyl-benzimidazol-5-yl-carboxylic Acid-N-(2-amidinoethyl)-N-iso-propyl-amide-dihydrochloride], the melting point was in the range of 195 to 200 °C.
As for `CN(C)CCN(C)C(=O)c1ccc2c(c1)nc(CCc1ccc(C(=N)N)cc1)n2C` (as salt: hydrochloride) [Example 3, 2-[2-(4-Amidinophenyl)-ethyl]1l-methyl-benzimidazol-5-yl-carboxylic Acid-N-[2-(N,N-dimethylamino)-ethyl]-N-methyl-amide-dihydrochlonide], the melting point is > 220 °C.
For `Cn1c(CCc2ccc(C(=N)N)cc2)nc2cc(C(=O)N(CCC(=N)N)CCc3ccccc3)ccc21` (as salt: hydrochloride) [Example 24, 2-[2-(4-Amidinophenyl)-ethyl]-1-methyl-benzimidazol-5-yl-carboxylic Acid-N-(2-amidinoethyl)-N-(2-phenylethyl)-amide-dihydrochloride], the melting point lay in the range of 185 to 190 °C.

Another data set deals with T1, rh beta tryptase (Homo sapiens, UniProt P20231).
T1 construct: purchased Promega
T1 sequence (P20231 31-275): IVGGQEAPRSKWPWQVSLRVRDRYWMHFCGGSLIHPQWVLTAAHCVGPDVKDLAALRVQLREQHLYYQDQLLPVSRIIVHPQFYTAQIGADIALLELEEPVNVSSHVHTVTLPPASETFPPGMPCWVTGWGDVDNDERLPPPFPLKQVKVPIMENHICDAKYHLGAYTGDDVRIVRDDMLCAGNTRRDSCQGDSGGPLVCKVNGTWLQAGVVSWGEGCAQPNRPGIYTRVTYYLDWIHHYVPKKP
Kind of data set: Tryptase inhibition test (cleavage of N-p-tosyl-Gly-Pro-Lys-para-nitroaniline, p-nitroaniline measured at 405 nm). In kind it is biochemical. Conditions: concentration at which 50% of the tryptase enzyme activity is inhibited; substrate 0.6 mM, pH 7.4, 37° C. In outline:
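Recombinant human beta tryptase (0.91 U/ml) in 100 mM Tris HCl pH 7.4 with 5 mM calcium and 100 mg/ml heparin; compounds pre-incubated 5 min, then 0.6 mM tosyl-Gly-Pro-Lys-pNA added, 5 min at 37 °C. p-Nitroaniline read at 405 nm; % inhibition at 10 μM, IC50 determined when inhibition exceeded 70%.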
In the case of `Cl.Cl.Cn1c(CCc2ccc(C(=N)N)cc2)nc2cc(C(=O)N(CCN(Cc3ccccc3)Cc3ccccc3)C3CCCCC3)ccc21` [Example 2, 2-[2-(4-Amidinophenyl)ethyl]-1-methyl-benzimidazol-5-yl-carboxylic Acid-N-[2-(N,N-dibenzylamino)ethyl]-N-cyclohexyl-amide-dihydrochloride], half-maximal inhibition (IC50) required 153 nM.
